From paper PMC3958129, “Enzyme kinetics and distinct modulation of the protein kinase N family of kinases by lipid activators and small molecule inhibitors” (Bioscience Reports, 2014) come the findings set out here.

Where two headings read alike, the source gives them in different places.

A word on the EC50: it is the midpoint of the concentration-response curve.

The target in assay [1] is T1, PKN3 (Homo sapiens, UniProt Q6P5Z2). Description: Lipid activation of PKN3 kinase activity, off-chip mobility shift assay. The conditions noted are these: increase in initial rate; saturating ATP (500 μM), 3 μM peptide, 3 nM PKN3. On the set-up: Full-length, FLAG-tagged human PKN1, PKN2 and PKN3 were expressed in mammalian HEK-293 cells. The format is biochemical. Here is the method:
(§1) Lipids were supplied as a solid powders, ethanol, or chloroform solutions. All solids were dissolved directly into assay buffer and briefly water bath sonicated at room temperature for 10 min. Lipids supplied as solutions in organic solvent were dried under a gentle stream of nitrogen, resuspended in assay buffer, and similarly sonicated. All lipids were prepared fresh daily.
(§2) The activity of all PKN proteins was monitored through the use of a highly sensitive off-chip mobility shift assay utilizing a LabChip EZ Reader II instrument (Caliper Life Sciences/PerkinElmer); this assay format has been described elsewhere. Kinase activity was monitored through the phosphorylation of a 5-FAM-labelled PKN substrate peptide found through Pfizer in-house optimization efforts and derived from the amino acid sequence of GSK3α (accession no. AAH51865.1) with the following sequence: 5-FAM-C6-[…]-NH2. The likely site of phosphorylation is underlined, as determined through comparison with the published phosphorylation consensus sequence for PKN1 and PKN3 substrates. Reaction buffer contained 25 mM Tris, pH 8.0, 5 mM MgCl2, 0.002% CHAPS and 2 mM DTT, with indicated protein, ATP and peptide concentrations. Peptide concentration was adjusted according to purity and peptide content. For inhibition studies, the inhibitor was pre-incubated with enzyme for 15 min at room temperature. All reactions were initiated with ATP and conducted at room temperature (~22°C). Reactions were terminated by the addition of EDTA, pH 8.0, at a final concentration of 25 mM. All reaction rates were determined to be linear with respect to time and enzyme concentration where no more than 20% of peptide substrate had been converted to product. Aliquots of each reaction were transferred in duplicate to a 384-well plate and analysed on a LabChip EZ Reader II with separation buffer containing 100 mM Hepes, pH 7.5, 0.015% Brij-35, 1 mM EDTA, 0.1% CR3 coating reagent, 1×CR8 coating reagent and 5% DMSO, with the following settings: downstream voltage: −500 V, upstream voltage: −2300 V, base pressure: −0.5 psi; screen pressure: −1.7 psi.
Ki values for representative inhibitors were determined by fitting initial reaction velocities to eqn (2) for competitive inhibition using the method of non-linear least-squares using GraphPad Prism. Turnover number (kcat) was calculated by normalizing Vmax values for enzyme concentration.
(§3) Figure 2 PKN responses to lipid activators in biochemical assays Lipids were prepared as described under the Experimental section, and kinase activity of PKN isoforms was measured using off-chip mobility shift assay described in the Methods section. Each lipid was titrated in the presence of 1 nM, 5 nM and 3 nM PKN1–3, respectively, 3 μM peptide and 500 μM ATP. vi is the initial rate at each concentration of lipid activator and vo is the initial rate in the absence of lipid.

Assay [2] addresses T2, PKN2 (Homo sapiens, UniProt Q16513). Put plainly: Lipid activation of PKN2 kinase activity, off-chip mobility shift assay. The format is biochemical. On the set-up: Full-length, FLAG-tagged human PKN1, PKN2 and PKN3 were expressed in mammalian HEK-293 cells; host or cells: HEK-293 (transient transfection, pcDNA4/TO). The conditions noted are these: for PKN2 Maximal fold activation: increase in initial rate; for effect on PKN2 kinase activity: in words, saturating ATP. The procedure:
as §1
as §2, with “psi. […]” for “psi.”
as §3

For assay [3], the target named is T3, PKN1 (Homo sapiens, UniProt Q16512). Description: Lipid activation of PKN1 kinase activity, off-chip mobility shift assay. The conditions noted are these: saturating ATP (500 μM), 3 μM peptide, 1 nM PKN1; for PKN1 Maximal fold activation: increase in initial rate; for EC50: lipid activator. Also on record: Full-length, FLAG-tagged human PKN1, PKN2 and PKN3 were expressed in mammalian HEK-293 cells; host or cells: HEK-293 (transient transfection, pcDNA4/TO). Type of assay: biochemical. Here is the method:
as §1
as §2, with “psi. […]” for “psi.”
as §3

For assay [4], the target named is T1, PKN3. Put plainly: PKN3 kinase inhibition, off-chip mobility shift assay. Type of assay: biochemical. Also on record: Full-length, FLAG-tagged human PKN1, PKN2 and PKN3 were expressed in mammalian HEK-293 cells.
Description: (§4) The activity of all PKN proteins was monitored through the use of a highly sensitive off-chip mobility shift assay utilizing a LabChip EZ Reader II instrument (Caliper Life Sciences/PerkinElmer); this assay format has been described elsewhere [31]. […] Peptide concentration was adjusted according to purity and peptide content. For inhibition studies, the inhibitor was pre-incubated with enzyme for 15 min at room temperature. All reactions were initiated with ATP and conducted at room temperature (~22°C).
(§5) All data were globally fit using non-linear regression and GraphPad Prism software. Non-linear data were converted to double-reciprocal Lineweaver–Burk plots for visual and presentation purposes only. Kinetic data were analysed in duplicate, and each plot is representative of at least two independent experiments.
(§6) For enzyme inhibition studies, data were fit to eqns (2)–(4) for competitive, non-competitive and uncompetitive inhibition, respectively: (2) v=Vmax[S]/[S]+KM1+[I]/Ki (3) v=Vmax[S]/([S]+KM)1+[I]/Ki (4) v=Vmax[S]/[S]1+[I]/αKi+KM
(§7) For eqns (1)–(4), v is measured velocity, Vmax is maximum velocity, [ATP], [Pep] and [S] are concentrations of ATP, peptide and varied substrate, respectively; Kia is the equilibrium dissociation constant of ATP, KM,ATP, KM,Pep and KM are the Michaelis–Menten constants for ATP, peptide and the varied substrate, respectively. [I] is the inhibitor concentration, α describes the preference for inhibitor binding to either free or substrate bound enzyme and Ki is the inhibitor equilibrium dissociation constant.
In the next assay the test system is PKN1, PKN2 and PKN3. Put plainly: PKN isoform selectivity from Ki values (Ki ratio). The format is biochemical, human. The conditions noted are these: for Isoform selectivity: isoform(s) preferred, defined as ~10-fold or greater Ki ratio.
The target in assay [5] is T2, PKN2. Put plainly: PKN2 kinase inhibition, off-chip mobility shift assay. On the set-up: Full-length, FLAG-tagged human PKN1, PKN2 and PKN3 were expressed in mammalian HEK-293 cells; host or cells: HEK-293 (transient transfection, pcDNA4/TO). The format is biochemical.
Description: as §4, §5, §6, §7
In assay [6] the target is T3, PKN1. Put plainly: PKN1 kinase inhibition, off-chip mobility shift assay. On the set-up: Full-length, FLAG-tagged human PKN1, PKN2 and PKN3 were expressed in mammalian HEK-293 cells; host or cells: HEK-293 (transient transfection, pcDNA4/TO). Type of assay: biochemical.
Description: as §4, §5, §6, §7
Where [7] appears, read: saturating ATP (500 μM), 3 μM peptide, 5 nM PKN2.
Where [8] appears, read: absence of lipids, fit to competitive inhibition, ±S.D., n=2, read-out: PKN3, Ki.
[9] abbreviates: absence of lipids, fit to competitive inhibition, ±S.D., n=2, read-out: PKN2, Ki.
Setting [10] is: absence of lipids, fit to competitive inhibition, ±S.D., n=2, read-out: PKN1, Ki.

T2 sequence (Q16513 whole entry): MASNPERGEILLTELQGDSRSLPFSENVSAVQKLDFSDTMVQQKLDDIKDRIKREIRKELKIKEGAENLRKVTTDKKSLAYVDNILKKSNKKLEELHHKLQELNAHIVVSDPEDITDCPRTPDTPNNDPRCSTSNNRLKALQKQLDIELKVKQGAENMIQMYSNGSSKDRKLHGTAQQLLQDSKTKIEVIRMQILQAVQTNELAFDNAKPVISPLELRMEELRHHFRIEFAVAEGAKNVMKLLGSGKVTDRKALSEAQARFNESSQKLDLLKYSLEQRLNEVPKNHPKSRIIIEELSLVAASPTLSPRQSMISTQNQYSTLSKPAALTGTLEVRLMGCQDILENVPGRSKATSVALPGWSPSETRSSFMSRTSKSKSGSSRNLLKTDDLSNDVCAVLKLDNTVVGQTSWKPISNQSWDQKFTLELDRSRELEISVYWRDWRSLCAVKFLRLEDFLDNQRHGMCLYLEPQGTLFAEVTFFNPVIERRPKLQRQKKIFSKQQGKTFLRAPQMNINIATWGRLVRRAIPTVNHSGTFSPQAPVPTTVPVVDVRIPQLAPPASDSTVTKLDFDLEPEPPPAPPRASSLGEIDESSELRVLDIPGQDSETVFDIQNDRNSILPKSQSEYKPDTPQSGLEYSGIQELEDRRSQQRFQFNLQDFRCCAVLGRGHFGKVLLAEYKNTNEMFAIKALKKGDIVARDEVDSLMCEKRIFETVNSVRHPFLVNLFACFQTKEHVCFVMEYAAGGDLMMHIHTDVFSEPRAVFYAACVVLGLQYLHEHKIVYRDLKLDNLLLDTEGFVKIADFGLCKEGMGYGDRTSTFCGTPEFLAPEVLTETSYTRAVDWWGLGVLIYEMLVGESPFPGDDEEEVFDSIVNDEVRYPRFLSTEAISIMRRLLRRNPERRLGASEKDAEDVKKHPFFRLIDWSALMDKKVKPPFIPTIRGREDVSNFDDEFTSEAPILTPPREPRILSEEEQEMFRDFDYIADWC
T1 sequence (Q6P5Z2 whole entry): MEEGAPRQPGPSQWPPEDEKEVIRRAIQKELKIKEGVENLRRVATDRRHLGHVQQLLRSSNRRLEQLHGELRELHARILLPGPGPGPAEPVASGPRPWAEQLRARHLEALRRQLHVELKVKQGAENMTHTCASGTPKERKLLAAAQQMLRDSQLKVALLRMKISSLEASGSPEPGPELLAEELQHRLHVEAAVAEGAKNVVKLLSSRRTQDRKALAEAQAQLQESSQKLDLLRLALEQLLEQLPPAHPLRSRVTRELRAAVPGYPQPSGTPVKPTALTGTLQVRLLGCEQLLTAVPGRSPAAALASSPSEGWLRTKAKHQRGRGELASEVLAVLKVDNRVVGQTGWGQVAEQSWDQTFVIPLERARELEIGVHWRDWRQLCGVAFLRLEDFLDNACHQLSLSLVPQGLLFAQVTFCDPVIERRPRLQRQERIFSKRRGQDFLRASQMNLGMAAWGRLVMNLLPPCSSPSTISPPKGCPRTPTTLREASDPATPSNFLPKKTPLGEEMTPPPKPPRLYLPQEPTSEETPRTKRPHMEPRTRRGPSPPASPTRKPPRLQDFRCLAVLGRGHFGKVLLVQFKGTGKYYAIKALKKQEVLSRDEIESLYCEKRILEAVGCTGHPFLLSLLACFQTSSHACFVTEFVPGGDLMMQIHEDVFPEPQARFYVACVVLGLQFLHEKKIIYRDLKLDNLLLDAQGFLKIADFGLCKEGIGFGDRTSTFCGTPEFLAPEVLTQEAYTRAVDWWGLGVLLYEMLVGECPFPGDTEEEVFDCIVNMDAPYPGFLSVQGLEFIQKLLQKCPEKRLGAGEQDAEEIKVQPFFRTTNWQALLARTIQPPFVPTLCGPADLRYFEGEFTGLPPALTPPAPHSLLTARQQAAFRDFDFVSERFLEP
T3 sequence (Q16512 whole entry): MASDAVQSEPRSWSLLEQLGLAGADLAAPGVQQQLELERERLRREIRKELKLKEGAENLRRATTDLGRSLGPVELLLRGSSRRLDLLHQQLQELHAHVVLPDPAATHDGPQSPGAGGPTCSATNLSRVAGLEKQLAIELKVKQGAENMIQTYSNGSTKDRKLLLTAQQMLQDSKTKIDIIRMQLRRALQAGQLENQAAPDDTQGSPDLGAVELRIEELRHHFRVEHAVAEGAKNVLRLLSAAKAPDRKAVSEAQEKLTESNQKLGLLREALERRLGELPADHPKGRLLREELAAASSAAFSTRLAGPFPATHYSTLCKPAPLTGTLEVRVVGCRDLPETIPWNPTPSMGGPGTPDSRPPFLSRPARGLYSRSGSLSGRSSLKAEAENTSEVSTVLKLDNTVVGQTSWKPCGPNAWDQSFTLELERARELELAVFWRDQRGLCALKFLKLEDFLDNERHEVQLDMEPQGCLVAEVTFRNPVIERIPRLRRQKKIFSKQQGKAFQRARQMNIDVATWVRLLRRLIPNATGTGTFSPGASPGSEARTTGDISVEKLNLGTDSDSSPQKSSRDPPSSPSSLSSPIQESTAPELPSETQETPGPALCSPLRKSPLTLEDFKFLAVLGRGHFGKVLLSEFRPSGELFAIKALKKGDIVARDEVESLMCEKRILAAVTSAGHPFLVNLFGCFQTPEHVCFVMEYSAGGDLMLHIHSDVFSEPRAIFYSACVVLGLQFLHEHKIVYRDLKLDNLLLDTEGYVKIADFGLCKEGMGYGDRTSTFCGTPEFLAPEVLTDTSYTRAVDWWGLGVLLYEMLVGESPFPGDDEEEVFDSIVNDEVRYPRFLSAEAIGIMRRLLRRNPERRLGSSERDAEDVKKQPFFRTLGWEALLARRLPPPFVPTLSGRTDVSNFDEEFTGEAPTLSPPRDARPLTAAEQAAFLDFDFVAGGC
Excerpt for PKN1, PKN2 and PKN3: The activity of all PKN proteins was monitored through the use of a highly sensitive off-chip mobility shift assay utilizing a LabChip EZ Reader II instrument (Caliper Life Sciences/PerkinElmer); this assay format has been described elsewhere [31]. […] The likely site of phosphorylation is underlined, as determined through comparison with the published phosphorylation consensus sequence for PKN1 and PKN3 substrates [27]. […] Peptide concentration was adjusted according to purity and peptide content. For inhibition studies, the inhibitor was pre-incubated with enzyme for 15 min at room temperature. All reactions were initiated with ATP and conducted at room temperature (~22°C).

`O=P(O)(O)O[C@@H]1[C@H](O)[C@H](O)[C@@H](OP(=O)(O)O)[C@H](OP(=O)(O)O)[C@H]1O` [IP3, D-myo-inositol-1,3,5-triphosphate]: the “PKN3 Maximal fold activation” value on PKN3 [1] is listed as less than 2 fold. For the same compound, the “PKN2 Maximal fold activation” value at PKN2 [2] (setting [7]) is recorded as less than 2 fold. Further, on PKN1 [3], the “PKN1 Maximal fold activation” value was less than 2 fold.
As to `CCCCCCCC(=O)OC[C@H](CO)OC(=O)CCCCCCC` [DAG, 1,2-dioctanoyl-sn-glycerol], the “PKN3 Maximal fold activation” value on PKN3 [1] was less than 2 fold. Moreover, on PKN2 [2] (setting [7]), the “PKN2 Maximal fold activation” value is recorded as less than 2 fold. Moreover, the “PKN1 Maximal fold activation” value on PKN1 [3] is on record as less than 2 fold.
Take `O=C1Nc2ccc3ncsc3c2/C1=C/c1c[nH]cn1` [Compound 5, PKR inhibitor]: the values for the Ki on PKN3 [4] (setting [8]), at PKN2 [5] (setting [9]) and on PKN1 [6] (setting [10]) were 240 ± 30 nM, 41 ± 7 nM and 410 ± 50 nM, respectively. In addition, in the assay on PKN1, PKN2 and PKN3, the Isoform selectivity entry is “PKN2”.
`CNCCNS(=O)(=O)c1cccc2cnccc12` [Compound 10, H-8]: the Ki at PKN3 [4] (setting [8]) amounted to 10 ± 2 nM; on PKN2 [5] (setting [9]) it was 1800 ± 300 nM; at PKN1 [6] (setting [10]) it was 1800 ± 300 nM.
In the case of “phosphatidylinositol-3,4,5-triphosphate [PIP3]”, the “PKN3 Maximal fold activation” value at PKN3 [1] is recorded as less than 2 fold. Moreover, on PKN2 [2], the “effect on PKN2 kinase activity” value is listed as “not affected”. Besides, the “PKN2 Maximal fold activation” value at PKN2 [2] (setting [7]) is reported as less than 2 fold. In addition, at PKN1 [3], the “PKN1 Maximal fold activation” value was found to be 11 fold and the EC50 stood at 2000 ± 1000 nM.
Take `Nc1ncnc2c1ncn2[C@@H]1O[C@H](COP(=O)(O)OP(=O)(O)O)[C@@H](O)[C@H]1O` [ADP]: the Ki came to 69000 ± 5000 nM on PKN3 [4] (product inhibition, competitive with respect to ATP, 5 μM peptide, 7.8–250 μM ATP, 4 nM enzyme, 5 μM arachidonic acid, read-out: PKN3 Ki); 320000 ± 12000 nM on PKN3 [4] (product inhibition, non-competitive with respect to peptide, 50 μM ATP, 0.9–30 μM peptide, 4 nM enzyme, 5 μM arachidonic acid, read-out: PKN3 Kiapp); 26000 ± 4000 nM on PKN2 [5] (product inhibition, competitive with respect to ATP, 2 μM peptide, 6–200 μM ATP, 2 nM enzyme, 100 μM arachidonic acid, read-out: PKN2 Ki); 65000 ± 5000 nM at PKN2 [5] (product inhibition, non-competitive with respect to peptide, 20 μM ATP, 0.3–10 μM peptide, 2 nM enzyme, 100 μM arachidonic acid, read-out: PKN2 Kiapp); 53000 ± 4000 nM on PKN1 [6] (product inhibition, competitive with respect to ATP, 3 μM peptide, 31–1000 μM ATP, 1 nM enzyme, 100 μM arachidonic acid, read-out: PKN1 Ki); 170000 ± 14000 nM on PKN1 [6] (product inhibition, non-competitive with respect to peptide, 50 μM ATP, 0.3–10 μM peptide, 1 nM enzyme, 100 μM arachidonic acid, read-out: PKN1 Kiapp).
As to Phosphatidylserine, the “PKN3 Maximal fold activation” value on PKN3 [1] is reported as less than 2 fold. Besides, the “effect on PKN2 kinase activity” value on PKN2 [2] is given as “not affected”. For the same compound, the “PKN2 Maximal fold activation” value at PKN2 [2] (setting [7]) is recorded as less than 2 fold. Besides, the “PKN1 Maximal fold activation” value on PKN1 [3] was 15 fold; on PKN1 [3] (listed as phosphatidylserine), 10–16 fold. The EC50 on PKN1 [3] was 3000 ± 1000 nM.
Consider “phosphatidylinositol-4,5-bisphosphate [PIP2]”, for which the “PKN3 Maximal fold activation” value at PKN3 [1] is recorded as less than 2 fold. In addition, the “effect on PKN2 kinase activity” value at PKN2 [2] is listed as “increased”. Moreover, the “PKN2 Maximal fold activation” value at PKN2 [2] (setting [7]) is reported as 7 fold. For the same compound, the EC50 amounted to 2000 ± 1000 nM on PKN2 [2] (lipid activator, saturating ATP (500 μM), 3 μM peptide, 5 nM PKN2) and 5000 ± 1000 nM on PKN1 [3]. The “PKN1 Maximal fold activation” value on PKN1 [3] was 14 fold.
`Cn1cc(C2=C(c3cn(CCCSC(=N)N)c4ccccc34)C(=O)NC2=O)c2ccccc21` [Compound 2, Ro 31-8220]: the Ki at PKN3 [4] (setting [8]) is 170 ± 10 nM; on PKN2 [5] (setting [9]), 17 ± 2 nM.
On to `CN(C(Cc1ccc(OS(=O)(=O)c2cccc3cnccc23)cc1)C(=O)N1CCN(c2ccccc2)CC1)S(=O)(=O)c1cccc2cnccc12` (centres unmarked) [Compound 11, KN62], for which the Ki was greater than 5000 nM at PKN2 [5] (setting [9]) and 2900 ± 700 nM on PKN1 [6] (setting [10]).
Consider `Nc1nc(Nc2ccc(S(N)(=O)=O)cc2)nn1C(=S)Nc1c(F)cccc1F` [Compound 6, CDK1/2 inhibitor III], for which the Ki on PKN3 [4] (setting [8]) was found to be 34 ± 2 nM; on PKN2 [5] (setting [9]), 12 ± 2 nM; on PKN1 [6] (setting [10]), 220 ± 20 nM. Moreover, the “selectivity for PKN2 over PKN1” value in the assay on PKN1, PKN2 and PKN3 (from Ki values) came out at 18 fold. Moreover, in the assay with PKN1, PKN2 and PKN3 (in words), the “selectivity for PKN2 over PKN3” value is listed as “only minimal selectivity”. In addition, the Isoform selectivity result in the assay with PKN1, PKN2 and PKN3 was “PKN2/3”.
For `Oc1ccc(-c2nc(-c3ccncc3)c(-c3ccc(F)cc3)[nH]2)cc1` [Compound 9, SB-202190], the Ki was 4 ± 0.3 nM at PKN3 [4] (setting [8]), 2300 ± 400 nM on PKN2 [5] (setting [9]) and greater than 5000 nM at PKN1 [6] (setting [10]).
On to `O=S(=O)(c1cccc2cnccc12)N1CCCNCC1` [Compound 12, HA-1077], for which the Ki at PKN1 [6] (setting [10]) was 800 ± 100 nM.
On to H-PRLQRQERIFSKRRG-OH [PKN3-PRL], for which, at PKN3 [4] (competitive with respect to peptide substrate, 250 μM ATP, 0.9–30 μM peptide, 4 nM enzyme, 5 μM arachidonic acid, read-out: PKN3 Ki with respect to peptide substrate), the Ki is 5400 nM. Also, the “PKN3 αKi with respect to ATP” value at PKN3 [4] (uncompetitive with respect to ATP, 6 μM peptide, 7.8–250 μM ATP, 4 nM enzyme, 5 μM arachidonic acid) came out at 1.3 µM.
As to `CO[C@@H]1[C@H](N(C)C(=O)c2ccccc2)C[C@H]2O[C@]1(C)n1c3ccccc3c3c4c(c5c6ccccc6n2c5c31)C(=O)NC4` [Compound 1, PKC412], the Ki on PKN3 [4] (setting [8]) is less than 0.2 nM.
